The results in this text go back to patent publication US20160130226A1, “SPIRO-SUBSTITUTED OXINDOLE DERIVATIVES HAVING AMPK ACTIVITY” (BOEHRINGER INGELHEIM INTERNATIONAL GMBH, priority 2013, published 2016).

T1 sequence (Q9Y478 2-270 limits assumed): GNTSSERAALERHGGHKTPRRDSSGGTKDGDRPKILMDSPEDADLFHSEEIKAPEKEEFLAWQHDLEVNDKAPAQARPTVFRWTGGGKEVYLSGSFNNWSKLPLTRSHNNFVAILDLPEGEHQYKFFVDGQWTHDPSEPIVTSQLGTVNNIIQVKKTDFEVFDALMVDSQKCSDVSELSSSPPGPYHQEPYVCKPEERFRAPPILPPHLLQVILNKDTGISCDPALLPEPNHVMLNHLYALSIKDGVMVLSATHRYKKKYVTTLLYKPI
T1 sequence (Q13131 whole entry): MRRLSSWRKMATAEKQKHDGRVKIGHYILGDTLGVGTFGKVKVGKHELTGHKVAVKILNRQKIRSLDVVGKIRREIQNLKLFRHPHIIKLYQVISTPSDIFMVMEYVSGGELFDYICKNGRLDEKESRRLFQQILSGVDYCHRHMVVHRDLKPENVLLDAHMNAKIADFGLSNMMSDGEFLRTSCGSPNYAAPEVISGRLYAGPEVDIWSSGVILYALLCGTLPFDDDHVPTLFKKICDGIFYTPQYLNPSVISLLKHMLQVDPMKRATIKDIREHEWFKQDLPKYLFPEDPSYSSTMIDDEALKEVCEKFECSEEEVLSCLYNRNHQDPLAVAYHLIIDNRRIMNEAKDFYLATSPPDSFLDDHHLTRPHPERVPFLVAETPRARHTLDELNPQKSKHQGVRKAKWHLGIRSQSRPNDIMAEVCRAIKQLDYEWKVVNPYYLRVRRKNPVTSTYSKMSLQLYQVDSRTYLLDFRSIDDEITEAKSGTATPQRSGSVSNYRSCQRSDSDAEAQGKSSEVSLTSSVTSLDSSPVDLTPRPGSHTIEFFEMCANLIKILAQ
T1 sequence (P54619 whole entry partner): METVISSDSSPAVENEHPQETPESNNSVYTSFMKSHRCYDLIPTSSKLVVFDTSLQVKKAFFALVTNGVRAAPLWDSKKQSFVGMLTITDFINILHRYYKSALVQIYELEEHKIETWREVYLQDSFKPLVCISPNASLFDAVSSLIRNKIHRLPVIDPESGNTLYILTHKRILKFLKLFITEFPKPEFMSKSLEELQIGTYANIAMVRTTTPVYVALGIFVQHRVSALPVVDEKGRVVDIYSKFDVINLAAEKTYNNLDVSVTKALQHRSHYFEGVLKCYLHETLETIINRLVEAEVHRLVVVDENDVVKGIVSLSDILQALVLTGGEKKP

One assay addresses T1, AMPK beta 1 (Homo sapiens, UniProt Q13131+Q9Y478).
T1 construct: in-cell-ELISA for phospho-ACC (Acetyl-CoA carboxylase 1) in HepG2 cells (liver); endogenous in cells; host or cells: HepG2 (assignment to the beta 1 column inferred)
Put plainly: in-cell-ELISA for phospho-ACC: activation of AMPK, beta 1 (HepG2 cells / C2C12 myotubes). The class given is cell-based. The note with it: 1 μM, 2 h, percentage activation over vehicle control. How it is done: Activation of AMPK by various compounds were measured using in-cell-ELISA for phospho-ACC (Acetyl-CoA carboxylase 1) in HepG2 cells (liver) and fully differentiated myotubes (C2C12 cells) grown in 96 well plate. Cells were treated with 1 μM, 3 μM or 10 μM of the molecule (Example) for 2 h in serum free DMEM media. After methanol fixation, cells were blocked with BSA followed by addition of anti-phospho ACC antibody (Cell Signaling) and HRP conjugated secondary antibody. Absorbance values taken at 450 nm were normalized with total DNA (Hoechest stain). Results were expressed as percentage activation over vehicle control.
Percentage activation at compound (Example) concentration of 1, 3 or 10 μM for compounds according to the invention are shown in the following table. The number of the compound corresponds to the number of the Example (Ex) in the experimental section.
(In general: ELISA stands for enzyme-linked immunosorbent assay.)
As to `Cc1ccc(C2CC23C(=O)Nc2cc(F)c(-c4ccc(-c5ccc(-n6cncn6)cc5)cc4)cc23)cc1C(=O)O` (stereo not shown) [Example 147], the “Percentage activation of beta 1 at given concentration” value is on record as 32% at 1 μM.
Same read-out and setting: to `Cc1ccc(C2CC23C(=O)Nc2cc(F)c(-c4ccc(-c5ccc(-n6cncn6)cc5)cc4)cc23)cc1C(=O)O` (stereo not shown) [Example 148] belongs 127% at 1 μM; to `Cc1ccc(C2CC23C(=O)Nc2cc(Cl)c(-c4ccc(-c5ccc(-n6cncn6)cc5)c(F)c4)cc23)cc1C(=O)O` (stereo not shown) [Example 152], 95% at 1 μM; to `CC(C)(C(=O)O)c1ccc(C2CC23C(=O)Nc2cc(F)c(-c4ccc(-c5ccc(-n6cncn6)cc5)cc4)cc23)cc1` (stereo not shown) [Example 161], 115% at 1 μM.

Staying with this assay, now noted: 10 μM, 2 h, percentage activation over vehicle control.
For `Cc1ccc(C2CC23C(=O)Nc2cc(Cl)c(-c4ccc(C5(CO)CC5)cc4)cc23)cc1C(=O)O` (stereo not shown) [Example 45], the “Percentage activation of beta 1 at given concentration” value came to 80% at 10 μM.
Same read-out and setting: to `O=C(O)Cc1cccc(C2CC23C(=O)Nc2cc(Cl)c(-c4ccc(-c5ccccc5O)cn4)cc23)c1` (stereo not shown) [Example 17] belongs 88% at 10 μM.

The assay is the same for the next values; noted with them: 2 h, 1 μM, percentage activation over vehicle control, read-out: Percentage activation of beta 1 at given concentration.
As to `O=C(O)Cc1cccc(C2CC23C(=O)Nc2cc(F)c(-c4ccc(-c5ccc(-n6cccn6)cc5)cc4)cc23)c1` (stereo not shown) [Example 171], the activation at 1 µM stood at 44%.
For `Cc1ccc(C2CC23C(=O)Nc2c(F)cc(-c4ccc(-c5ccc(-n6cncn6)cc5)cc4)cc23)cc1C(=O)O` (stereo not shown) [Example 155], the activation at 1 µM is 28%.
In the case of `Cc1ccc(C2CC23C(=O)Nc2cc(F)c(-c4ccc(-c5ccc6c(cnn6C)c5)cc4)cc23)cc1C(=O)O` (stereo not shown) [Example 160], the activation at 1 µM was 11%.
On to `COc1ccc(C2CC23C(=O)Nc2cc(F)c(-c4ccc(-c5ccc(-n6cccn6)cc5)cc4)cc23)cc1C(=O)O` (stereo not shown) [Example 164], for which the activation at 1 µM was found to be 19%.

The same assay, now with this note: 2 h, 3 μM, percentage activation over vehicle control, read-out: Percentage activation of beta 1 at given concentration.
Consider `Cc1ccc(C2CC23C(=O)Nc2cc(Cl)c(-c4ccc(-c5ccncc5)cc4)cc23)cc1C(=O)O` (stereo not shown) [Example 59], for which the activation at 3 µM worked out at 42%.
On the same count and under the same terms, to `COc1ccc(C2CC23C(=O)Nc2cc(F)c(-c4ccc(-c5ccccc5O)cc4)cc23)cc1C(=O)O` (stereo not shown) [Example 11] belongs 64%; to `O=C1Nc2cc(Cl)c(-c3ccc(-c4ccc(-n5cncn5)cc4)cc3)cc2C12CC2c1ccc(-c2nnn[nH]2)cc1` (stereo not shown) [Example 191], 21%; to `Cc1ccc(C2CC23C(=O)Nc2cc(F)c(-c4ccc(-c5ccncc5)cc4)cc23)cc1C(=O)O` (stereo not shown) [Example 81], 55%.
For the compound `CC(C)c1ccc(C2CC23C(=O)Nc2cc(Cl)c(-c4ccc(N5CCC[C@H]5CO)cc4)cc23)cc1C(=O)O` (stereo partly shown) [Example 51], the activation at 3 µM came out at 34%.
Still for that read-out and setting: the same measure for `O=C(O)Cc1cccc(C2CC23C(=O)Nc2cc(Cl)c(-c4ccc(-c5ccccc5O)cc4)cc23)c1` (stereo not shown) [Example 26]: 73%; for `O=C(O)c1ccc(C2CC23C(=O)Nc2cc(Cl)c(-c4ccc(-c5ccccc5O)cc4)cc23)cc1` (stereo not shown) [Example 32]: 39%; for `O=C(O)Cc1ccc(C2CC23C(=O)Nc2cc(Cl)c(-c4ccc(-c5ccc(-n6cncn6)cc5)cc4)cc23)cc1` (stereo not shown) [Example 127]: 71%.
Still for that read-out and setting: the same measure for `Cc1ccc(C2CC23C(=O)Nc2cc(Cl)c(-c4ccc(-c5ccncc5)cc4)cc23)cc1CC(=O)O` (stereo not shown) [Example 64]: 81%; for `Cc1ccc(C2CC23C(=O)Nc2cc(Cl)c(-c4ccc(-c5ccccc5C(C)(C)O)cc4)cc23)cc1C(=O)O` (stereo not shown) [Example 53]: 47%.
In the case of `Cc1ccc(C2CC23C(=O)Nc2cc(Cl)c(-c4ccc(Cc5ccccc5O)cc4)cc23)cc1C(=O)O` (stereo not shown) [Example 34], the activation at 3 µM turned out to be 47%.
Still for that read-out and setting: the same measure for `Cc1ccc(C2CC23C(=O)Nc2cc(Cl)c(-c4ccc(-c5ccncc5O)cc4)cc23)cc1C(=O)O` (stereo not shown) [Example 21]: 93%.
As to `Cn1cc(C2CC23C(=O)Nc2cc(F)c(-c4ccc(-c5ccccc5O)cc4)cc23)cc1C(=O)O` (stereo not shown) [Example 14], the activation at 3 µM stood at 48%.
On the same count and under the same terms, to `Cc1ccc(C2CC23C(=O)Nc2cc(Cl)c(-c4ccc(-n5cccn5)cc4)cc23)cc1C(=O)O` (stereo not shown) [Example 166] belongs 62%; to `CC(C)(C(=O)O)c1ccc(C2CC23C(=O)Nc2cc(Cl)c(-c4ccc(-c5ccc(-n6cncn6)cc5)cc4)cc23)cc1` (stereo not shown) [Example 137], 48%.
As to `CC(C)c1ccc(C2CC23C(=O)Nc2cc(Cl)c(-c4ccc(-c5ccc(-n6cncn6)cc5)cc4)cc23)cc1C(=O)O` (stereo not shown) [Example 131], the activation at 3 µM turned out to be 47%.
For `Cc1ccc(C2CC23C(=O)Nc2cc(Cl)c(-c4ccc(-c5ccccc5O)cc4)cc23)cc1C(=O)O` (stereo not shown) [Example 28], the activation at 3 µM is 104%.
Regarding `Cc1ccc(C2CC23C(=O)Nc2cc(Cl)c(-c4ccc(-c5ccc(-n6cncn6)cc5)cc4)cc23)cc1CO` (stereo not shown) [Example 184], the activation at 3 µM was found to be 36%.
Take `CCN1C(=O)C2(CC2c2ccc(OC)c(C(=O)O)c2)c2cc(-c3ccc(-c4ccncc4)cc3)c(Cl)cc21` (stereo not shown) [Example 106]: the activation at 3 µM worked out at 99%.
`Cc1ccc(C2CC23C(=O)Nc2cc(Cl)c(-c4ccc(N5CCC[C@H]5CO)cc4)cc23)cc1C(=O)O` (stereo partly shown) [Example 49]: the activation at 3 µM amounted to 53%.
On the same count and under the same terms, to `Cc1ccc(C2CC23C(=O)Nc2cc(Cl)c(-c4ccc(-c5ccccc5O)cc4)cc23)cc1C(=O)Nc1nnn[nH]1` (stereo not shown) [Example 183] belongs 19%; to `CC(C)c1ccc(C2CC23C(=O)Nc2cc(Cl)c(-c4ccc(N5CCC[C@@H]5CO)cc4)cc23)cc1C(=O)O` (stereo partly shown) [Example 50], 68%.
Turning to `O=C(O)Cc1cccc(C2CC23C(=O)Nc2cc(Cl)c(-c4ccc(-c5ccc(-n6cncn6)cc5)cc4)cc23)c1` (stereo not shown) [Example 129], the activation at 3 µM stood at 15%.
Still for that read-out and setting: to `O=C(O)Cc1cccc(C2CC23C(=O)Nc2cc(F)c(-c4ccc(-c5ccccc5O)cc4)cc23)c1` (stereo not shown) [Example 31] belongs 68%.

The same assay, now with this note: 2 h, 10 μM, percentage activation over vehicle control, read-out: Percentage activation of beta 1 at given concentration.
With `Cc1ccc(C2CC23C(=O)N(C)c2cc(Cl)c(-c4ccc(-c5ccncc5O)cc4)cc23)cc1C(=O)O` (stereo not shown) [Example 41], the activation at 10 µM is 29%.
The same measure, in the same setting: to `CN(C)c1cc(-c2ccc(-c3cc4c(cc3Cl)NC(=O)C43CC3c3cccc(CC(=O)O)c3)cc2)ccn1` (stereo not shown) [Example 88] belongs 132%; to `Cc1ccc(C2CC23C(=O)Nc2cc(Cl)c(-c4ccc(N5CCOCC5)c(F)c4)cc23)cc1C(=O)O` (stereo not shown) [Example 71], 40%.
Take `Cc1ccc(C2CC23C(=O)Nc2cc(Cl)c(-c4ccc(O)cc4)cc23)cc1C(=O)O` (stereo not shown) [Example 29]: the activation at 10 µM is 40%.
For `Cc1ccc(C2CC23C(=O)Nc2cc(Cl)c(-c4ccc(-c5cccnc5)cc4)cc23)cc1C(=O)O` (stereo not shown) [Example 62], the activation at 10 µM is 86%.
On to `Cc1ccc(C2CC23C(=O)Nc2cc(Cl)c(-c4ccc(-c5ccccc5)cn4)cc23)cc1C(=O)O` (stereo not shown) [Example 75], for which the activation at 10 µM was 54%.
The same measure, in the same setting: to `Cc1ccc(C2CC23C(=O)Nc2cc(Cl)c(-c4ccc(-c5cnn(C)c5)cc4)cc23)cc1C(=O)O` (stereo not shown) [Example 85] belongs 127%; to `Cc1ccc(C2CC23C(=O)Nc2cc(Cl)c(-c4ccc(-c5ccccc5S(C)(=O)=O)cc4)cc23)cc1C(=O)O` (stereo not shown) [Example 87], 47%; to `Cc1ccc(C2CC23C(=O)Nc2cc(Cl)c(-c4ccc(N5CCOCC5)cc4)cc23)cc1C(=O)O` (stereo not shown) [Example 66], 36%.
On to `Cn1c(C(=O)O)ccc1C1CC12C(=O)Nc1cc(Cl)c(-c3ccc(-c4ccccc4O)cc3)cc12` (stereo not shown) [Example 42], for which the activation at 10 µM was 42%.
In the case of `Cn1ccc2cc(-c3cc4c(cc3F)NC(=O)C43CC3c3cccc(CC(=O)O)c3)ccc21` (stereo not shown) [Example 56], the activation at 10 µM came to 79%.
Take `Cn1cc(C2CC23C(=O)Nc2cc(F)c(-c4ccc(-c5ccccc5O)cc4)cc23)cc1C(=O)O` (stereo not shown) [Example 13]: the activation at 10 µM worked out at 11%.
As for `COc1ccc(C2CC23C(=O)Nc2cc(F)c(-c4ccc(-c5ccncc5)cc4)cc23)cc1C(=O)O` (stereo not shown) [Example 84], the activation at 10 µM is 75%.
Consider `Cc1ccc(C2CC23C(=O)N(C)c2cc(Cl)c(-c4ccc(-c5ncccc5O)cc4)cc23)cc1C(=O)O` (stereo not shown) [Example 36], for which the activation at 10 µM was 39%.
As for `Cc1ccc(C2CC23C(=O)Nc2cc(Cl)c(-c4ccc(-c5ccncc5)cc4)nc23)cc1C(=O)O` (stereo not shown) [Example 83], the activation at 10 µM amounted to 92%.
On to `Cc1ccc(C2CC23C(=O)Nc2cc(Cl)c(-c4ccc5[nH]ccc5c4)cc23)cc1C(=O)O` (stereo not shown) [Example 94], for which the activation at 10 µM was determined as 137%.
As for `Cc1ccc(C2CC23C(=O)Nc2cc(F)c(-c4ccc(-c5ccccc5O)cn4)cc23)cc1C(=O)O` (stereo not shown) [Example 9], the activation at 10 µM worked out at 23%.
`Cc1ccc(C2CC23C(=O)N(C)c2cc(F)c(-c4ccc(-c5ccccc5O)cc4)cc23)cc1C(=O)O` (stereo not shown) [Example 15]: the activation at 10 µM turned out to be 176%.
For `CC(C)c1ccc(C2CC23C(=O)Nc2cc(Cl)c(-c4ccc(-c5ccncc5O)cc4)cc23)cc1C(=O)O` (stereo not shown) [Example 22], the activation at 10 µM was determined as 271%.
Consider `COc1ccc(C2CC23C(=O)Nc2cc(Cl)c(-c4ccc(-c5ccccc5)cn4)cc23)cc1C(=O)O` (stereo not shown) [Example 77], for which the activation at 10 µM stood at 17%.
As for `Cc1ccc(C2CC23C(=O)Nc2cc(Cl)c(S(=O)(=O)NC4CC4)cc23)cc1C(=O)O` (stereo not shown) [Example 90], the activation at 10 µM was found to be 25%.
